Experimental data reported in patent US11213027B2, “Combined administration of a penetration agent and a sulfur containing compound to plants” (THE STATE OF ISRAEL, MINISTRY OF AGRICULTURE & RURAL …, priority 2016, dated 2022).

Legend:
[1] = test system: grapevine buds (cuttings, whole vine); settings: cited from earlier work
cv. Early Sweet vines [2] = assay: Bud break on whole vines, greenhouse in Argaman, Jordan Valley; assay type: in vivo, Vitis vinifera; settings: Example 21, FIGS. 23A, 23B; 6% DADS alone (DADS 6% control); natural bud break about 25-45%
cv. Early Sweet vines [3] = assay: Bud break on whole vines in a vineyard, Jordan Valley (spur pruning, hot winter); assay type: in vivo, Vitis vinifera; settings: Example 2, FIG. 2, negative control Triton, positive control 5% HC
[4] = test system: Vitis vinifera cv. Early Sweet single-node cuttings; assay: Bud break on grapevine single-node cuttings in growth chamber; assay type: in vivo
[5] = test system: berries of cv. Early Sweet vines; assay: TSS (sugar) level of berries of treated vines; assay type: in vivo, Vitis vinifera; settings: Example 3, FIG. 4; 6% DADS with 2% Armobreak®; Brix meter; versus control and HC
[6] = test system: corms, tubers and apple buds; settings: cited from earlier work
whole vines in vineyards = assay: Overall bud break in vineyards, summary over the examples; assay type: in vivo, grapevine; settings: spur pruned vineyard in region with higher chilling (FIG. 19, Example 17)

In the case of `C=CCSSCC=C` [DADS, diallyl disulfide], the “bud break enhancing effect” value ([1]; applied to the whole vine, rather than to cuttings) is given as “very limited and inferior to the known HC”, the “grapevine bud break enhancement among garlic volatile compounds” value ([1]; volatile compounds containing sulfur and allyl groups) is given as “particularly effective” and the bud break (cv. Early Sweet vines [2]) is given as “results within the range of the natural bud break”. The bud break (cv. Early Sweet vines [3]; 2% DADS with 0.02% Triton X-100) was “no effect”, the bud break (cv. Early Sweet vines [3]; 4% DADS with 0.02% Triton X-100) was “slight enhancement in bud break in comparison to the negative control” and the bud break ([4]; Example 1, FIG. 1, 1% DADS sprayed with 0.02% Triton X-100, compared with 0.1%, 5% and 10% DADS) was “best result”. For the same compound, the bud break ([4]; Example 1, FIG. 1, 5% DADS sprayed with 0.02% Triton X-100, control 0.02% Triton X-100 only, 22° C., monitored to day 28) was “toxic and actually inhibit bud break”, the bud break ([4]; Example 1, FIG. 1, 10% DADS sprayed with 0.02% Triton X-100, control 0.02% Triton X-100 only, monitored to day 28) was “toxic and actually inhibit bud break” and the “TSS levels of the berries (ripening)” value [5] was “increase the total soluble solids (TSS) level of the berries in comparison to the control”. The bud break [6] was “enhanced bud break of corms, tubers and apple buds”.
With `C=CCSCC=C` [DAS, Diallyl Sulfide] the bud break ([4]; Example 5, FIG. 7, higher concentrations of DAS (0.1%, 1%, 5% tested) with 2% Armobreak®, control 2% Armobreak®) was “may reduce bud breaking” and the bud break ([4]; Example 5, FIG. 7, relatively low concentrations of DAS (0.1%, 1%, 5% tested) with 2% Armobreak®, control 2% Armobreak®) was “enhance bud breaking in grapevine cuttings”.
In the case of `N#CN` [HC, hydrogen cyanamide], the bud break (whole vines in vineyards) is reported as “a milder effect or no effect”.
